The target of one assay is T1, EC-EpoR-Fc (Homo sapiens, UniProt P19235).
T1 construct: (EC-EpoR, amino acids 1 to 225); made in house; host or cells: Pichia pastoris X-33 (pPICZαA, secreted)
T1 sequence (P19235 25-249): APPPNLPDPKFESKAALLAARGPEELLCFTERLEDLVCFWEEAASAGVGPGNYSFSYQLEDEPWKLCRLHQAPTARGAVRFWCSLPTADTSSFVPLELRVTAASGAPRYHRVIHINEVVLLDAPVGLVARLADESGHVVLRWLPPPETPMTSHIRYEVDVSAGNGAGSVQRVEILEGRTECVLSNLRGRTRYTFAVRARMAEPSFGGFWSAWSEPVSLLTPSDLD
Put plainly: Competition ELISA with synthetic trMP peptide, phage binding to immobilised EC-EpoR-Fc. As for the experimental part:
Without a crystal structure of the MP/Ec-EpoR-Fc complex, it is however unclear whether the contribution of an MP residue in these parts to EC-EpoR-Fc binding is related to direct peptide-receptor interaction or to intra-molecular interactions. In an attempt to delineate the MP peptide binding site on EC-EpoR-Fe, a competition ELISA using a synthetic truncated version of the MP peptide (trMP, from A3 to Y28) was performed. […] A similar result (i.e. binding outside the biological ligand-binding site) has been reported for the symmetrical molecule SB-247464 which recognises the homodimeric G-CSF receptor (Tian et al., 1998). Large and complex proteins with modular architecture indeed appear to have multiple ligand-binding sites located at the slits between symmetrical modules.
For competition ELISA with synthetic trMP peptide (see below), serial dilutions of MP peptide (starting from 1 mM) were mixed with 2.5×10^8 phage in 2% MPBS, then added to pre-blocked EC-EpoR-Fc-coated wells for 2 hours. Bound phage were detected as described above. […] Bound EC-EpoR-Fc was detected with protein A-horseradish peroxidase conjugate ( 1/4000 dilution, Sigma), and o-phenylene diamine dihydrochloride (OPD) as substrate. After 10-15 minutes, the reactions were stopped with 50 μl of 4 N H2SO4 and absorbances were measured at 492 nm.
Background: In an ELISA, binding on a coated surface is turned into a signal by an enzyme label.

A further assay concerns the target T2, ferritin (Equus caballus, UniProt P02791+Q8MIP0).
T2 construct: ferritin (from horse spleen, Sigma cat. F-4503); purchased Sigma F-4503; host or cells: horse spleen
The assay can be described thus: Apparent dissociation constant of n-unit HKPRKE MBP fusions for ferritin. The conditions noted are these: n-unit of HKPRKE motif fused to maltose-binding protein. On the set-up: species or system horse. From the text: In contrast, the results from the Fd-1×6-mer, Fd-2×6-mer, and Fd-4×6-mer peptide libraries indicate that concatenation is crucial to reach the selection threshold for binding to ferritin. […] By competition ELISA, we observed that these peptide constructs had affinities to ferritin very similar to that of peptide F6. […] In a randomised polypeptide, the likelihood that down-mutations will offset up-mutations increases with its length, so that ultimately most longer polypeptides will have average sequence profiles. […]
For competition ELISA with ferritin-binding peptide, serial dilutions of MBP-fusions (see below) were incubated with 10 nM biotinylated ferritin in 2% MPBS overnight at 4° C., then added to pre-blocked MBP-(HKPRKE)8-coated wells for 30 min. Bound biotinylated ferritin was detected by incubation with streptavidin horseradish peroxidase conjugate (Sigma) and OPD.
Apparent dissociation constants were calculated using the BIAevaluation program and the 1:1 Langmuir dissociation model from sensorgrams (BIAcore) collected upon immobilisation of 200-400 resonance units (RU) of biotinylated ligands (sEPOR-Fc or MBP-fusion) on SA-sensor chips followed by injection of various analytes (sEPOR-Fc, MBP-fusion, 0.1 to 2 μM concentration range) diluted in HBS-EP buffer (BIAcore), at a flow rate of 80 μl/min at 25° C.

The record followed here is US20040009507A1, “Concatenated nucleic acid sequence” (Domantis, Ltd., priority 2000, published 2004).

As usually defined, the IC50 is the concentration at which inhibition is half-maximal.

Positions of bridges follow the written chain, without caps; N, C: chain ends. Residues, ends and D or L forms follow the SMILES beside them.

T2 sequence (P02791 2-175 limits assumed): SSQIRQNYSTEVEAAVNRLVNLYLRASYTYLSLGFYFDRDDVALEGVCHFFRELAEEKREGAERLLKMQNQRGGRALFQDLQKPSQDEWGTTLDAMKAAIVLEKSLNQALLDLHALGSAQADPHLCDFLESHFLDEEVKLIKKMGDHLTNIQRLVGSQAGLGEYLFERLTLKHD
T2 sequence (Q8MIP0 whole entry): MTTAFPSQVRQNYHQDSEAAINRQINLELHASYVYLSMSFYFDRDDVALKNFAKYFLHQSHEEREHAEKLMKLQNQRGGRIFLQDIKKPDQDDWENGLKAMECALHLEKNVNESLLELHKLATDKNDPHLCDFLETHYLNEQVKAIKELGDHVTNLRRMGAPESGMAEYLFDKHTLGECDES

On to `CC(C)C[C@H](NC(=O)[C@@H](NC(=O)[C@H](C)NC(=O)CNC(=O)[C@H](Cc1c[nH]cn1)NC(=O)[C@@H]1CSSC[C@H](NC(=O)[C@H](C)N)C(=O)N[C@@H](Cc2c[nH]cn2)C(=O)NCC(=O)N[C@@H](C)C(=O)N[C@@H]([C@@H](C)O)C(=O)N[C@@H](CC(C)C)C(=O)N[C@@H](CCC(=O)O)C(=O)N[C@@H](CCC(N)=O)C(=O)N[C@@H]([C@@H](C)O)C(=O)N[C@@H](Cc2ccc(O)cc2)C(=O)N[C@@H](C)C(=O)N[C@@H](CC(C)C)C(=O)N2CCC[C@H]2C(=O)N[C@@H](CC(C)C)C(=O)N[C@@H](C)C(=O)N1)[C@@H](C)O)C(=O)N[C@@H](CCC(=O)O)C(=O)N[C@@H](CCC(N)=O)C(=O)N[C@H](C(=O)N[C@@H](Cc1ccc(O)cc1)C(=O)O)[C@@H](C)O` [trMP, NH2-ACHGATLEQTYALPL ACHGATLEQTY-CO2H] (H-ACHGATLEQTYALPLACHGATLEQTY-OH; disulfide 2-17 (inferred)), for which, at EC-EpoR-Fc (read-out: IC50 for blocking MP phage-peptide binding to immobilised EC-EpoR-Fc), the IC50 amounted to 10 µM. Moreover, the “effect on signal of phage displaying the EMP1 peptide” value at EC-EpoR-Fc (trMP concentration up to 1 mM) is on record as “no reduction in signal”.

Consider (HKPRKE)4 [F6 peptide], for which the Kd at ferritin is about 0.5 µM.
